These results are taken from patent publication US8466107B2, “Fibrin-binding peptides and conjugates thereof” (Bracco Imaging SpA, priority 2006, dated 2013).

Bridge positions count the residues as written; N and C are the ends.

The assay has as its system neuroblastoma (Neuro-2a) tumor. As to the kind of experiment: In vivo MRI test of fibrin imaging in neuroblastoma tumor mouse model. Conditions: mice with neuroblastoma tumor; 25 μmol/kg iv.; T1 weighted MRI at 2T, 4 h post injection. The source says: Three groups of 5 mice each, inoculated with 2·10^6 neuroblastoma cells with PBS, were formed and tested as follows: • Group a: Reference compound 2, • Group b: Chelate Complex 1 • Group c: ProHance® (see Protocol)
At day-10 post tumor cells inoculation, at least 4 mice per group with similar tumor size (5-10 mm in diameter) were selected for the in vivo MRI tests. After pre-contrast MRI acquisition (T1 and T2 high resolution 2D spin-echo and 3D gradient echo images), the test compounds were administered (25 μmol/kg iv.) and MRI was performed at 4 h and 24 h post injection. Maximum signal intensity was measured in the entire tumor area and in each post contrast image covering the whole tumor and the signal was compared to the pre-contrast images. At the end of MRI exams, all animals were sacrificed and the tumor, blood, liver, kidneys and femoral bone were removed and prepared for Gd assay by ICP-AES. […]
The mean signal intensity was measured within a region of interest (ROI) including the entire tumor, drawn by an operator on each MR image using dedicated software (MR Research Systems Ltd, Surrey UK). Signal intensity enhancement (Enh %) was determined as: Enh%=100*(SIx(t)−SI0)/SI0 […]

As for “Chelated Complex 1: Gd chelated complex (four DTPA-Glu units on branched lysine linker) conjugated to the fibrin-binding peptide; MRI contrast agent (Ac-WQPCPAESWTFCWDPGGGK-NH2; disulfide 4-12; not fully specified (some residues); also: further groups not given here)”, the tumor signal enhancement entry is given as “significant tumor signal enhancement”.
